These are literature values, as cited in PMC7610473, “Axial functionalisation of photoactive diazido platinum(iv) anticancer complexes” (Inorganic chemistry frontiers, 2020).

Details of this data set: method as in PMID 9399704.

As for `O=C(O)c1cc2ccc(O)cc2oc1=O` [7-hydroxycoumarin-3 carboxylic acid], the pK a is recorded as 1.98.
